Reference: patent publication US20110144014A1, “CYTOKINE RECEPTOR MODULATORS AND USES THEREOF” (CENTRE HOSPITALIER UNIVERSITAIRE SAINTE-JUSTINE, priority 2005, published 2011)
Where a SMILES comes first, the peptide text is derived from it. Where no end group is shown, it is not given here. [ ]: non-standard residue; d: D form.

Legend:
IGF-1R [1] = target: T1, IGF-1R (Homo sapiens, UniProt P08069); test: IGF-1 induced proliferation of A549 carcinoma cells (3H-thymidine); type: cell-based; set-up: endogenous in cells; host or cells: A549
Procedure: The proliferation induced by IGF-1 was measured in A549 carcinoma cells in the presence of peptides APG201; APG202 and APG204 and of IGF-1 (10 ng/ml-FIG. 8A) and (1 ng/ml-FIG. 8B) pursuant to the incorporated tritiated thymidine method. The cells were preincubated at 37° C. with the different peptides at different concentrations, namely 10^−7, 10^−6 and 10^−5M. The cells were then incubated with IGF-1 (10 ng/ml or 1 ng/ml) for 24 hours and contacted with ^3H-Thymidine for 24 hours, washed, and lysed. Radioactivity levels were measured with a scintillation counter.
Target sequence in this assay (P08069 31-736 limits assumed): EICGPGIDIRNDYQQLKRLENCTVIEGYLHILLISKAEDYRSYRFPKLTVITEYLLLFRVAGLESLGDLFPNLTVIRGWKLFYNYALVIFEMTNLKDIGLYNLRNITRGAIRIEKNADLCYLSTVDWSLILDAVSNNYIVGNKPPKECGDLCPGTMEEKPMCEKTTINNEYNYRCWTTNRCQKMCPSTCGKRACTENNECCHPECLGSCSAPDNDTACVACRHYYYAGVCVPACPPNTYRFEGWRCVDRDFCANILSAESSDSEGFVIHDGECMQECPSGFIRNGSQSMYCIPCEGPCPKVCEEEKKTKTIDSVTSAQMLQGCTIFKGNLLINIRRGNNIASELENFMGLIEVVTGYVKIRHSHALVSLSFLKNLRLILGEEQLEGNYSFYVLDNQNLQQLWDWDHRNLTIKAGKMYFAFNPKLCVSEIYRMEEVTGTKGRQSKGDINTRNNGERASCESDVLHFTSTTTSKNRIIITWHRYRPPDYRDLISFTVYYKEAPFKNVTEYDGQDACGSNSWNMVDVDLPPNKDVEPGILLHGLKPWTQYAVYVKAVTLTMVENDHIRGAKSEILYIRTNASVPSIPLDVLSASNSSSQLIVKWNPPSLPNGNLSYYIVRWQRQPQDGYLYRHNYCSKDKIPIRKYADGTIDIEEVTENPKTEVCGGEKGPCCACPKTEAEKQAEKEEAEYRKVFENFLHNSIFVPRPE
Target sequence in this assay (P08069 741-1367 limits assumed): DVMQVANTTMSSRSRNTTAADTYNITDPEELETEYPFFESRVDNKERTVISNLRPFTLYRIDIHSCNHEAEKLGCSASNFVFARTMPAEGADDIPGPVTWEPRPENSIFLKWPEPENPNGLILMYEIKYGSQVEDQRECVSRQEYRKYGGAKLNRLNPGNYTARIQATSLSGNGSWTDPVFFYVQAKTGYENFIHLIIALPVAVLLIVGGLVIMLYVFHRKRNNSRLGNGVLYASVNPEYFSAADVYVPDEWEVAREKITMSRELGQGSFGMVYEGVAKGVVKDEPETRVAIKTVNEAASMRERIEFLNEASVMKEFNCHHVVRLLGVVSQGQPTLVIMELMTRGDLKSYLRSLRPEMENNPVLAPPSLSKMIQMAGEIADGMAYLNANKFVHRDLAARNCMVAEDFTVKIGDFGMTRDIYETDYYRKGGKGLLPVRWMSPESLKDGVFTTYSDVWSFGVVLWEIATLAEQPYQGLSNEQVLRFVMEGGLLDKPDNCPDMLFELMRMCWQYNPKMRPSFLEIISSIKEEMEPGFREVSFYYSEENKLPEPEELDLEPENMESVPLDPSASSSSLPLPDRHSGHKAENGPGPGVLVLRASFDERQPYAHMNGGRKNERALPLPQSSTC

IGF-1R [2] = target: T1, IGF-1R; test: IGF-1 induced proliferation of MCF-7 breast carcinoma cells (3H-thymidine); type: cell-based; set-up: MCF-7 breast carcinoma cells; endogenous in cells; host or cells: MCF-7; settings: for Emax / inhibition: MCF7; for inhibition: read-out: efficacy, inhibition of MCF-7 proliferation
Procedure: We also tested the effect IGF-1R antagonist peptides on IGF-1 induced proliferation in other cancer cell types (MCF-7 breast carcinoma cells, HepG2 hepatocarcinoma cells, and MDA-MB-231 breast adenocarcinoma cells). Different cancer cells were pre-incubated (45 min.) with different concentrations of peptides prior to stimulation with IGF-1 (50 ng/ml) (37° C.) for 24 hours; fetal calf serum was omitted 24 hours prior to stimulation with IGF-1 to avoid proliferative effects by other mitotic agents. ^3H-thymidine (1 μCi/ml) was then added for 24 hours, after which cells were washed three times with 5% cold TCA and lysed with 0.1N NaOH/0.1% Triton X-100. Radioactivity was measured with a scintillation counter. Experiments were repeated 3 times in duplicates (FIG. 15). […]
Target sequence in this assay (P08069 31-736 limits assumed): as the sequence (P08069 31-736 limits assumed) above
Target sequence in this assay (P08069 741-1367 limits assumed): as the sequence (P08069 741-1367 limits assumed) above

IGF-1R [3] = target: T1, IGF-1R; test: IGF-1 induced proliferation of MDA-MB-231 breast adenocarcinoma cells (3H-thymidine); type: cell-based; set-up: MDA-MB-231 breast adenocarcinoma cells; endogenous in cells; host or cells: MDA-MB-231; settings: for EC50: read-out: EC50, in vitro cell proliferation assay; for Emax: MDA-MB-231, read-out: Emax, in vitro cell proliferation assay
Procedure: (§1) We also tested the effect IGF-1R antagonist peptides on IGF-1 induced proliferation in other cancer cell types (MCF-7 breast carcinoma cells, HepG2 hepatocarcinoma cells, and MDA-MB-231 breast adenocarcinoma cells). Different cancer cells were pre-incubated (45 min.) with different concentrations of peptides prior to stimulation with IGF-1 (50 ng/ml) (37° C.) for 24 hours; fetal calf serum was omitted 24 hours prior to stimulation with IGF-1 to avoid proliferative effects by other mitotic agents. ^3H-thymidine (1 μCi/ml) was then added for 24 hours, after which cells were washed three times with 5% cold TCA and lysed with 0.1N NaOH/0.1% Triton X-100. Radioactivity was measured with a scintillation counter. Experiments were repeated 3 times in duplicates (FIG. 15).
Target sequence in this assay (P08069 31-736 limits assumed): as the sequence (P08069 31-736 limits assumed) above
Target sequence in this assay (P08069 741-1367 limits assumed): as the sequence (P08069 741-1367 limits assumed) above

VEGFR2 (Flk-1) [4] = test: VEGF induced proliferation of microvascular endothelial cells (3H-thymidine); type: cell-based, porcine; settings: VEGF 2 ng/ml
Procedure: (§2) To determine the efficient and non-cytotoxic concentration of VEGF to use in the assay, a dose-response curve of VEGF was generated in two types of cells, namely microvascular endothelial cells and pulmonary artery endothelial cells (PAEC) that had been transfected with the Flk-1 gene. The proliferation was then measured in those two types of cells in the presence of peptides 2.1, 2.2 and 2.3 and of VEGF (2 ng/ml) pursuant to the incorporated tritiated thymidine method. The cells were preincubated at 37° C. with the different peptides at different concentrations. They were incubated with VEGF (2 ng/ml) for 24 hours. The cells were contacted with ^3H-Thymidine for 24 hours, washed and lysed. The radioactivity was measured with a scintillation counter.

VEGFR2 (Flk-1) [5] = target: T2, VEGFR2 (Flk-1) (Homo sapiens, UniProt P35968); test: VEGF induced proliferation of PAEC transfected with the Flk-1 gene (3H-thymidine); type: cell-based; settings: VEGF 2 ng/ml
T2 construct: expressed in transfected cells; host or cells: pulmonary artery endothelial cells (PAEC)
Procedure: as §2

[6] = tested on: neovascularization in rat retinas; test: Ischemic retinopathy model; type: in vivo; settings: rat pups, 80% O2 then normoxia; intravitreal, 10 μM final
Procedure: The efficiency of the selected peptides was verified in vivo in a ischemic retinopathy model, a phenomena highly dependent on VEGF activation. Rat pups were exposed to 80% O2 followed by a period of normoxia (21% O2). The peptides were injected at a final concentration of 10 μM in the vitreous body. The retinas were then retrieved, colored with the ADPase method and mounted on slides. Photographs of the retinas were taken with a microscope linked to a computer and the vascular density was evaluated with the Imagepro software.

IGF-1R [7] = target: T3, IGF-1R (Rattus norvegicus, UniProt P24062); test: Ex vivo IGF-1-induced vasorelaxation of rat aorta; settings: IGF-1 25 ng/ml; phenylephrine pre-constriction; read-out: Emax, inhibition of ex vivo IGF-1-induced vasorelaxation of rat aorta
T3 construct: from tissue; host or cells: aorta
T3 sequence (P24062 31-1370): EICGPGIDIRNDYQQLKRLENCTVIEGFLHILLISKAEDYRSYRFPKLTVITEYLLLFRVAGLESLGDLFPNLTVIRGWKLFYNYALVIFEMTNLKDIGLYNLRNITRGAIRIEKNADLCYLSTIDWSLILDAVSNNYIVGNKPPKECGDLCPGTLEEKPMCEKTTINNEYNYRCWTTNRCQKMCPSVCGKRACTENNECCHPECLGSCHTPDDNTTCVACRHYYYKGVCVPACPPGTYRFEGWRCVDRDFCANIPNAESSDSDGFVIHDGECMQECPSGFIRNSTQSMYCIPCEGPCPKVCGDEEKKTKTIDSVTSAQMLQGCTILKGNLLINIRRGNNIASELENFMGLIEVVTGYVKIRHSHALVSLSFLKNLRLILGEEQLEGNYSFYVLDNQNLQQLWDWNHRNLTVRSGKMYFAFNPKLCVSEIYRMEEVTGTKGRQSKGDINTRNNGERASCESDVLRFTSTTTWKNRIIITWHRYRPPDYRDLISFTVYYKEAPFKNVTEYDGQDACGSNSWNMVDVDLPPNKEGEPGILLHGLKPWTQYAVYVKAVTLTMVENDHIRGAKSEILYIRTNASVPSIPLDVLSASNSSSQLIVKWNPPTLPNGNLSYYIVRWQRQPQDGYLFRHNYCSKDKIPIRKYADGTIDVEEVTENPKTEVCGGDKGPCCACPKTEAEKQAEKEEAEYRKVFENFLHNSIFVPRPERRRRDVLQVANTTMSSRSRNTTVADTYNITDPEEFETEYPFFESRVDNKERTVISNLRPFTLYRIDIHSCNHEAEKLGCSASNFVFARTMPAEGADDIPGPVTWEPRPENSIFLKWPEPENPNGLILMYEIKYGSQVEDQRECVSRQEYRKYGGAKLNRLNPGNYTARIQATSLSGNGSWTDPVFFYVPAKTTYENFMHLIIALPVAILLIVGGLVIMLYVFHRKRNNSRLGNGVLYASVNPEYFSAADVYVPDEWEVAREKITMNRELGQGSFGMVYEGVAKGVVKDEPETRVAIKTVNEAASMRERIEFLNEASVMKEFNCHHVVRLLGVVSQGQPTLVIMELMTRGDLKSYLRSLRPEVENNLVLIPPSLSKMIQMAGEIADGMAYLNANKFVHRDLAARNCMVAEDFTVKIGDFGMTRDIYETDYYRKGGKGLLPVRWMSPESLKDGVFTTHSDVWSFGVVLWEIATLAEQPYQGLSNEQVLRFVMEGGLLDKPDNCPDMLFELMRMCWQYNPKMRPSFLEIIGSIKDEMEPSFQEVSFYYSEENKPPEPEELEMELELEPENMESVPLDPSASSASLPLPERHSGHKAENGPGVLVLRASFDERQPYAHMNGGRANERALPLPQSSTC
Procedure: Aortas were first incubated with different concentrations of peptides and phenylephrine to induce aorta constriction. IGF-1 (25 ng/ml) was then added to induce vasorelaxation. The results are expressed relative to a control aorta not incubated with the peptides. Vascular diameter was measured using a digital image analyzer. Vascular diameter was recorded before and after topical application of pre-constricting agent. After stabilization of the preparation, the ligand (IGF-1, 25 ng/ml) was added until stable vasodilation was detected. Peptides were subsequently added at different concentrations from 10^−8 to 10^−6 M. Reversal of vasodilatation was visualized and measured as described, for example, by Hou et al. (Am. J. Physiol. Regul. Integr. Comp. Physiol. 284:R928-R935 (2003)), Hou et al. (Stroke 31:516-524; discussion 525 (2000)), and Hou et al. (Am. J. Physiol. Regul. Integr. Comp. Physiol. 281:R391-R400 (2001)). Triplicate measurements were conducted on 2 animals.

IGF-1R [8] = target: T1, IGF-1R; test: IGF-1-induced proliferation of NIH3T3 cells transfected with human IGF-1R cDNA (3H-thymidine); type: cell-based; set-up: expressed in transfected cells; host or cells: NIH3T3; settings: NIH3T3-IGF-1R cells; IGF-1 50 ng/ml
Procedure: Derivatives of APG-203 and APG-206 peptides were truncated to determine peptide regions important for activity. Peptides were assayed for efficacy and potency with an ^3H-thymidine incorporation assay. In short, the ^3H-thymidine incorporation proliferation assay was performed in NIH3T3 cells transfected with human IGF-1R cDNA in presence of IGF-1 50 ng/ml and different concentrations of peptides.
Target sequence in this assay (P08069 31-1367): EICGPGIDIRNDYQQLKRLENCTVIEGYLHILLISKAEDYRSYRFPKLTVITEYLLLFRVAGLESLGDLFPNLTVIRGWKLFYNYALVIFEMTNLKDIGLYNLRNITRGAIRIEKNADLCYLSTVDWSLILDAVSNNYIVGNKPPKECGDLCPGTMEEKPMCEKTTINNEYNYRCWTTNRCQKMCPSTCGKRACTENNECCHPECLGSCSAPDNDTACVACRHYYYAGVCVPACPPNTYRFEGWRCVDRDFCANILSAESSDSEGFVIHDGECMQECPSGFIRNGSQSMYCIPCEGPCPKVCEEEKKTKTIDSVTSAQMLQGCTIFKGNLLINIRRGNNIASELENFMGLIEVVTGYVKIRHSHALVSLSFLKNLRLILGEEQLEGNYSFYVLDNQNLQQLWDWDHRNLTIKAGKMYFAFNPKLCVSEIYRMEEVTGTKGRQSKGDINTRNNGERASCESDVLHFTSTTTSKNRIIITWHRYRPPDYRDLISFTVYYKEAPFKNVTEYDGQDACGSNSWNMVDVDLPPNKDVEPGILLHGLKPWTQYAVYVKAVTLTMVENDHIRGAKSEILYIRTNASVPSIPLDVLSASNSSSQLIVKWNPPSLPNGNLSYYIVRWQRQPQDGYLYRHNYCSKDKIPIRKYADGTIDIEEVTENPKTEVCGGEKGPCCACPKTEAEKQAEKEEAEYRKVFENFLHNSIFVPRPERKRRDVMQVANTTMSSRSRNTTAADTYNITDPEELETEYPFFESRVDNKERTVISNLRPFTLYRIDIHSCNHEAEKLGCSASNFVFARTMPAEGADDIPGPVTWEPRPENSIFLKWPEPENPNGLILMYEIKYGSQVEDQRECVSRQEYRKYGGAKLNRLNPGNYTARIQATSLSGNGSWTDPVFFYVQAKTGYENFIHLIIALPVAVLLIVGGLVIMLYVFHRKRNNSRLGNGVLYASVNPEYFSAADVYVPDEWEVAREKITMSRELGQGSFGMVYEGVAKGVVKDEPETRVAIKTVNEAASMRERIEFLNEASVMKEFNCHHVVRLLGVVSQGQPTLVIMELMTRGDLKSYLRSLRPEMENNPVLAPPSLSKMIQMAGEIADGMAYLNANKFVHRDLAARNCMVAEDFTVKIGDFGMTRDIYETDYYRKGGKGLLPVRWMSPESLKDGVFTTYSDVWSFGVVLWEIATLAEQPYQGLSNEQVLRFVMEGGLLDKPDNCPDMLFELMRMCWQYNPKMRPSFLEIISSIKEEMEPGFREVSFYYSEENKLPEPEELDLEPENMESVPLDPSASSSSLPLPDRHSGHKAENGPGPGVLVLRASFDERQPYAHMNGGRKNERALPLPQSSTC

IGF-1R [9] = target: T1, IGF-1R; test: IGF-1-induced tyrosine autophosphorylation of IGF-1R (Western Blot); type: cell-based; settings: peptides 10^−6M, 45 min; IGF-1 50 ng/ml; read-out: inhibition of IGF-1-induced phosphorylation
Procedure: Cells were incubated with anti-IGF-1R peptides (10^−6M) for 45 minutes and with IGF-1 at 50 ng/ml for either 15 minutes or 5 minutes. Western Blots (phosphorylated tyrosine antibody and IGF-1R antibody) were performed in non-denaturing conditions on total cell lysates (FIG. 17).
Target sequence in this assay (P08069 31-1367, species assumed): as the sequence (P08069 31-1367) above

IGF-1R [10] = target: T1, IGF-1R; test: IGF-1 induced proliferation of HepG2 hepatocarcinoma cells (3H-thymidine); type: cell-based; set-up: HepG2 hepatocarcinoma cells; endogenous in cells; host or cells: HepG2; settings: for Emax: read-out: Emax, in vitro cell proliferation assay
Procedure: as §1
Target sequence in this assay (P08069 31-736 limits assumed): as the sequence (P08069 31-736 limits assumed) above
Target sequence in this assay (P08069 741-1367 limits assumed): as the sequence (P08069 741-1367 limits assumed) above

[11] = A549, IGF-1 10 ng/ml or 1 ng/ml
[12] = MCF-7, IGF-1 50 ng/ml, read-out: Emax, in vitro cell proliferation assay
[13] = MCF-7 (breast cancer) cells, Table 5, read-out: Emax

Emax (IGF-1R [2]; [12]) [%]	Emax (IGF-1R [3]; MB-MDA-231, IGF-1 50 ng/ml) [%]	Emax (IGF-1R [7]) [%]	inhibition (IGF-1R [2]; IGF-1 50 ng/ml) [%]	Emax (IGF-1R [8]) [%]	Compound	also measured
20	–	–	–	–	CC(C)C[C@@H](NC(=O)[C@H](NC(=O)[C@@H](CC(=O)O)NC(=O)[C@@H](CO)NC(=O)[C@H](N)CCC(=O)O)C(C)C)C(=O)N[C@H](Cc1c[nH]cn1)C(=O)N[C@H](Cc1ccccc1)C(=O)N[C@@H](C(=O)N[C@H](CO)C(=O)N[C@@H](C(=O)O)[C@H](C)O)[C@H](C)O [APG-202] (H-[dE][dS][dD][dV][dL][dH][dF][dT][dS][dT]-OH; N-terminus and C-terminus assumed)	IGF-1 induced proliferation (IGF-1R [1]; [11]): completely abrogated; EC50 (IGF-1R [1]; A549, IGF-1 10 ng/ml or 1 ng/ml, read-out: EC50, IGF-1 induced proliferation): 10 nM; EC50, in vitro cell proliferation assay (IGF-1R [3]; MB-MDA-231, IGF-1 50 ng/ml): Not active
–	–	–	–	–	CC(C)C[C@@H](NC(=O)[C@@H](CCCNC(=N)N)NC(=O)[C@H](NC(=O)[C@@H](CCCNC(=N)N)NC(=O)[C@@H](CCC(=O)O)NC(=O)CNC(=O)[C@H](NC(=O)[C@H](NC(=O)[C@@H](C)NC(=O)[C@H](N)CCC(=O)O)[C@H](C)O)C(C)C)C(C)C)C(=O)O [Peptide 2.2] (H-[dE][dA][dT][dV]G[dE][dR][dV][dR][dL]-OH; N-terminus and C-terminus assumed)	VEGF induced proliferation (VEGFR2 (Flk-1) [4]): completely abrogated; EC50 (VEGFR2 (Flk-1) [5]): 9000 nM; induced neovascularization [6]: most effective inhibitor of neovascularization
60	100	25	≤ 90	–	ENFLHLLLA [APG-205]	–
–	–	–	–	100	ERTVLSNL [APG-206.7]	Emax (IGF-1R [2]; [13]): 90%
90	100	25	≤ 90	–	IRKYADGTI [APG-204]	inhibition at 1 µM (IGF-1R [9]): 30%
60	–	75	≤ 90	–	KERTVISNLR [APG-206]	inhibition at 1 µM (IGF-1R [9]): > 70%; Emax (IGF-1R [10]; HepG2, IGF-1 50 ng/ml): 100%
–	–	–	–	75	KERTVLS [APG-206.5, KERTVLS]	Emax (IGF-1R [2]; [13]): 100%
45	100	50	≤ 90	–	RTNASVPSI [APG-203]	efficacy, inhibition of HepG2 proliferation (IGF-1R [10]): 50%; EC50 (IGF-1R [10]; HepG2, IGF-1 50 ng/ml, read-out: EC50, in vitro cell proliferation assay): < 0.1 nM; Emax (IGF-1R [10]; HepG2, IGF-1 50 ng/ml): 100%; EC50 (IGF-1R [2]; IGF-1 50 ng/ml, read-out: potency, inhibition of MCF-7 proliferation): 0.1 to 60 nM; EC50 (IGF-1R [3]; MB-MDA-231, IGF-1 50 ng/ml): 0.1 nM
–	–	–	–	90	TVLSNL [APG-206.9, TVLSNL]	IC50 (IGF-1R [8]): 20 nM

Compound	Emax (IGF-1R [2]; [12]) [%]	Emax (IGF-1R [3]; MB-MDA-231, IGF-1 50 ng/ml) [%]	Emax (IGF-1R [7]) [%]	inhibition (IGF-1R [2]; IGF-1 50 ng/ml) [%]	Emax (IGF-1R [8]) [%]	also measured
CC(C)C[C@@H](NC(=O)[C@H](N)CO)C(=O)N[C@H](Cc1ccccc1)C(=O)N[C@@H](C(=O)N1CCC[C@@H]1C(=O)N[C@H](CCCNC(=N)N)C(=O)N1CCC[C@@H]1C(=O)N[C@H](CCC(=O)O)C(=O)N[C@H](CCCNC(=N)N)C(=O)N[C@H](CCCCN)C(=O)O)C(C)C [APG-201] (H-[dS][dL][dF][dV][dP][dR][dP][dE][dR][dK]-OH; N-terminus and C-terminus assumed)	20	100	–	–	–	EC50 (IGF-1R [1]): 1000 nM; IGF-1 induced proliferation (IGF-1R [1]; [11]): completely abrogated; potency in MDA-MB-231 (IGF-1R [3]; ER insensitive cells): nanomolar potencies; EC50 (IGF-1R [3]; MB-MDA-231, IGF-1 50 ng/ml): 0.1 nM
